Assay results published in patent US11752155B2, “Treatment of autism spectrum disorders, obsessive-compulsive disorder and anxiety disorders” (Rugen Holdings (Cayman) Limited, priority 2016, dated 2023).
Structures can show the parent of a compound that is named as a salt. Where two headings read alike, the source gives them in different places.

Legend:
[1] = target: native rat brain NR2B receptors (Rattus norvegicus (Rat), UniProt P35439+Q00960); assay: NR2B radioligand binding assay in rat brain using [3H] (E)-N1-(2-methoxybenzyl)-cinnamidine; details: rat brain NR2B receptors; mean of replicates; read-out: Arithmetic Mean Ki
native rat brain NR2B receptors, sequence (Q00960 27-1482, other chains not shown): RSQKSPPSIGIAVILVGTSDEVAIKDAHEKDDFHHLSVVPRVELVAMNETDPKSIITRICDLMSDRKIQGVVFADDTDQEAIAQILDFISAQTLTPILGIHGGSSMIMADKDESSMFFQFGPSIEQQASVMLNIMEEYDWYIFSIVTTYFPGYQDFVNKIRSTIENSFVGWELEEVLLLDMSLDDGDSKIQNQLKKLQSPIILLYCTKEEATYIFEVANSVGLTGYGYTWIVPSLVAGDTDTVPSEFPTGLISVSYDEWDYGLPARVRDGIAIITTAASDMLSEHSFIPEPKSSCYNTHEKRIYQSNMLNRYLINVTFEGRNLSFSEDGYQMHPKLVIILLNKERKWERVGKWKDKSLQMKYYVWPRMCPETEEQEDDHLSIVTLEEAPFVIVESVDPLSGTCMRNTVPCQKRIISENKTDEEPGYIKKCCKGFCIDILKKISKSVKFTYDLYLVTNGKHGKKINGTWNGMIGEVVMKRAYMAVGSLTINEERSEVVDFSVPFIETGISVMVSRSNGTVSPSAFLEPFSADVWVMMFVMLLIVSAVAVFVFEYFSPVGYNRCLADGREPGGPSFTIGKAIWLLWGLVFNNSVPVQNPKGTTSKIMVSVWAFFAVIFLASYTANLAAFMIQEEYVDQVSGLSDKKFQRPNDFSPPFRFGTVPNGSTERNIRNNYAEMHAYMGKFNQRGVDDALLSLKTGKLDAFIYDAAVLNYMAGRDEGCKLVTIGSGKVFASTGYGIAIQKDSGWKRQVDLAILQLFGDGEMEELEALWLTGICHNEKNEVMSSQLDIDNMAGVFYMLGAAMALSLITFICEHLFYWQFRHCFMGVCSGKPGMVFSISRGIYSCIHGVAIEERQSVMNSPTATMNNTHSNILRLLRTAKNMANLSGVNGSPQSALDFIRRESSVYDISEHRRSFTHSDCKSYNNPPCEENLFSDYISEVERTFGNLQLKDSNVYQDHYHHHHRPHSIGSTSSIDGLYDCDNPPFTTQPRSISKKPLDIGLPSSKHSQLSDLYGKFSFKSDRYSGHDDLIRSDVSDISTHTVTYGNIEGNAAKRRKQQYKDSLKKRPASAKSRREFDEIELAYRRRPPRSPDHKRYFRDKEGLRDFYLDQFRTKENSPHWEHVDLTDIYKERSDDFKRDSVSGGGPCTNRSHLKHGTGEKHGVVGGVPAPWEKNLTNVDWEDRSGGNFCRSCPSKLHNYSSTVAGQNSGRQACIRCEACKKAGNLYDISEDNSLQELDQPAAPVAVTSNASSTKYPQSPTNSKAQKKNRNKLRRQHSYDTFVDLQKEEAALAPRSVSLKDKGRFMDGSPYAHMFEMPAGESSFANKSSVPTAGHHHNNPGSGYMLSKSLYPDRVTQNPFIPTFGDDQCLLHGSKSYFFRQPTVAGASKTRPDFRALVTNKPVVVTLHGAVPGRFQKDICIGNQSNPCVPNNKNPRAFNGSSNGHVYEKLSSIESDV
Description: This example describes an NR2B receptor binding assay in rat brain using [^3H] […] The binding assay method was adapted from a previously described cellular human NR1a/NR2B cloned receptor assay (Kiss et al. Neurochem. Internatl. 2005, 46:453-464) to rat brain tissue. This assay serves as a selective measure of NR2B receptor binding activity in native rat brain receptors. Briefly, the brains of male Wistar rats were homogenized (Polytron) before centrifugation at 40,000×g for 15 minutes at 4° C. After 2 washes, the final pellet was homogenized and stored at −80° C. The protein concentration was determined by Bradford assay. [^3H] […] Non-specific binding was assessed in the presence of excess (10 μM) (E)-N1-(2-nethoxybenzyl)-cinnamidine.
Test compounds were solubilized at 10 mM in DMSO. Then the dilutions were performed with a constant solvent concentration (1% DMSO) in the assay. After incubation for 4.5 hours at room temperature, the assays were filtered on GF/3 filters pretreated with 0.3% (v/v) polyethylenimine (PEI) with a Packard system. The experiment was performed in duplicate (n=2).

hERG channel = hERG channel (Homo sapiens (Human), UniProt Q12809); assay: hERG channel inhibition, whole cell patch clamp in HEK293 cells; format: cell-based; details: Table 1.3A
hERG channel, sequence (Q12809 whole entry): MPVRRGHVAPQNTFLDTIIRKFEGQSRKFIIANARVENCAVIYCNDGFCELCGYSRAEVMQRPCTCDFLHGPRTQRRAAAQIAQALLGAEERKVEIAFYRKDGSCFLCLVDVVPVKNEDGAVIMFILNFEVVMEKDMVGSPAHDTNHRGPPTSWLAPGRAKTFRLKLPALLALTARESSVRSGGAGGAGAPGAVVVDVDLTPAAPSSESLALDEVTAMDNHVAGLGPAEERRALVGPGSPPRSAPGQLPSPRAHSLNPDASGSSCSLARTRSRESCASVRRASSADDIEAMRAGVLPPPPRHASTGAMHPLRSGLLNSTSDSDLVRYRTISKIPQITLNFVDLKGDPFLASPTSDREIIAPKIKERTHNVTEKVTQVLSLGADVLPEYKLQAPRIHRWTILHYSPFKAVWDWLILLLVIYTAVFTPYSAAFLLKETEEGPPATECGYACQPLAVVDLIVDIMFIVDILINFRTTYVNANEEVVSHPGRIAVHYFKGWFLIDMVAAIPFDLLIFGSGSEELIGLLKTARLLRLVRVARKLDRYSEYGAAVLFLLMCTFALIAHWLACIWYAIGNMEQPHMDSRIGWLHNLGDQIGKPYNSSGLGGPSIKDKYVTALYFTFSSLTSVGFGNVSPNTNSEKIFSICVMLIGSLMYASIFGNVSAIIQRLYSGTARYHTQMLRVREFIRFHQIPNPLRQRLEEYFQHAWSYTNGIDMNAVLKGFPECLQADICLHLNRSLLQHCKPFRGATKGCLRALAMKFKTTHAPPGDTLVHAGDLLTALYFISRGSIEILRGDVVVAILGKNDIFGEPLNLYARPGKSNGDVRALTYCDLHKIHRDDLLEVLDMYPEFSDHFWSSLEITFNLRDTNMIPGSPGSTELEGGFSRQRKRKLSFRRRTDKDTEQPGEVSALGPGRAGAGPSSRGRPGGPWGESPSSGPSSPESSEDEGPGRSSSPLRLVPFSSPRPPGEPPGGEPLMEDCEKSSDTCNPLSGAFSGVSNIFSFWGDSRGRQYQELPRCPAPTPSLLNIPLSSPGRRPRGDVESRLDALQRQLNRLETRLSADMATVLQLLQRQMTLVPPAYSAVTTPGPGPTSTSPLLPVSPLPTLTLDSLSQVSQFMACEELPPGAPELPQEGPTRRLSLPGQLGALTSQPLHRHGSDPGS

human NR1/NR2B = human NR1/NR2B (Homo sapiens (Human), UniProt Q05586+Q13224); assay: NR2B antagonist activity: calcium influx (Fluo-4) assay in HEK293 cells; format: cell-based
human NR1/NR2B, sequence (Q13224 27-1484, other chains not shown): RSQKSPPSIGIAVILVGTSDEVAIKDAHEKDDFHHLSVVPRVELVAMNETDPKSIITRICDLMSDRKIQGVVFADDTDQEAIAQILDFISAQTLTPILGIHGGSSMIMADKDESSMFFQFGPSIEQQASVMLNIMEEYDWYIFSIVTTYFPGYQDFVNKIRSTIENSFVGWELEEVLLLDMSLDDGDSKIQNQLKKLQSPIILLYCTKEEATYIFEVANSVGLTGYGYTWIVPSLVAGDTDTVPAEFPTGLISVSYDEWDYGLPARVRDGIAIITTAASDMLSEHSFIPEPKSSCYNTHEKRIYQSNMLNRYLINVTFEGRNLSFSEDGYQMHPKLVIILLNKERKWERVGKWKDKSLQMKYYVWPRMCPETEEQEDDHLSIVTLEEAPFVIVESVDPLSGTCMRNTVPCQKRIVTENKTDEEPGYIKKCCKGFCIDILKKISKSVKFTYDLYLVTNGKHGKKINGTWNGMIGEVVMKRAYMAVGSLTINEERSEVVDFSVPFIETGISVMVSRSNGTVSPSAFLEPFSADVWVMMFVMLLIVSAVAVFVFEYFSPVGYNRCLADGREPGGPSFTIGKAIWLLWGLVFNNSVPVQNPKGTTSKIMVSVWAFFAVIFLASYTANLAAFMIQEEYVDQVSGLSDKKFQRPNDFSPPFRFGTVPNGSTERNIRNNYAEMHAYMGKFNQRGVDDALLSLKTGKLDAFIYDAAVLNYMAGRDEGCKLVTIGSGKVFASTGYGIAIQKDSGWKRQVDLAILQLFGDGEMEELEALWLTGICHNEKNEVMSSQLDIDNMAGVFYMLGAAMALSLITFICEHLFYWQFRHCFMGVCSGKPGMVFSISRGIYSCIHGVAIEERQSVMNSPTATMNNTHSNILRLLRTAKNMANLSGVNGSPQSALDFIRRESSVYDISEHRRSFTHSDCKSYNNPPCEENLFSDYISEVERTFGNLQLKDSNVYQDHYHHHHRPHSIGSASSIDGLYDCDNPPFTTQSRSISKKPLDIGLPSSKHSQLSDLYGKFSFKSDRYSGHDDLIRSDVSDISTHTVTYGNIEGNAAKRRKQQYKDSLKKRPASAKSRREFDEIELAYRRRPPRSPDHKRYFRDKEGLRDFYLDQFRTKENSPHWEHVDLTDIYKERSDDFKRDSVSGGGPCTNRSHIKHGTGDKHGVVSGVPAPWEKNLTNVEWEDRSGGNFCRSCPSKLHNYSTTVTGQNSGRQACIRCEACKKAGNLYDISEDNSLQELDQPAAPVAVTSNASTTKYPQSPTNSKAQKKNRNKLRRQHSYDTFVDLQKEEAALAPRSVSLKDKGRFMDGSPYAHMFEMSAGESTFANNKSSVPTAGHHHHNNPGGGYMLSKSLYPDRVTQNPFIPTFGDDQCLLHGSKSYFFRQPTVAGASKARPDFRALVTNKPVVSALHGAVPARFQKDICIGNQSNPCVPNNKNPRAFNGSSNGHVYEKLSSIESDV
Description: Activation of the NR2A or NR2B subtype of NMDA receptor with glutamate as an agonist and glycine co-agonist on these cells results in calcium influx, which can be monitored with fluorescent indicator Fluo-4.
For experiments, the cells were seeded onto poly-D-lysine-coated 96-well black plates with clear bottom (Corning) at a density of ˜50,000 cells/well. After overnight culture, the growth medium was removed from the wells and the cells were incubated at 37° C. for 60 minutes in Hanks buffer containing 4 μM fluo-4-AM (Invitrogen) and 0.1% bovine serum albumin (BSA). After dye-loading, the cells were washed three times with Hanks buffer and incubated for 10 minutes at room temperature with various concentrations of test compounds prepared in Hanks buffer with 0.1% BSA. The cell plates were placed onto an FDSS Cell fluorescence reader (Hamamatsu). After 20 seconds of reading background fluorescence, agonist glutamate at final 100 µM and co-agonist glycine at final 50 μM were added to the cells to activate the receptor, and the resulting fluorescence changes were recorded and quantified. Based on the changes in fluorescence intensity, the pharmacological effect of test compounds was analyzed and the IC50 values derived from a non-linear least squares fitting of the concentration-dependent response to a standard logistic equation using Prism (Graphpad Software, Inc.): Amplitude=Max Amplitude/(1+(IC50/[antagonist])^n).

[2] = system: wild type mice (male C57Bl/6); assay: Novelty Phobia Test in wild type mice; format: in vivo, mouse; details: for pattern of the dose-response function for bouts of nose touching: mouse, in vivo; for Percent Change in Novel Object Number of Nose Touches relative to vehicle control: pre-test time 10 min
Description: Animals. Male C57Bl/6 mice (18-30 g body weight; 6-8 weeks of age) were obtained from Slaccas (Shanghai, China) and allowed to acclimate to the animal facility for 7 days. Mice were group housed in plastic cages (no more than 4 animals per cage) on wood shavings with nesting material. All animals had free access to food (M01-F, Slaccas) and water. The animal facility was maintained under artificial lighting between 7:00 AM and 7:00 PM in a controlled ambient temperature of 22-24° C. and relative humidity between 50-60%.
Compound formulation. The test compounds were prepared in a vehicle of DMSO and HP-β-CD, and administered IP or PO. The test compounds or vehicle were administered at various times (10-20 minutes) before the behavioral test described below. Dosing volume was 10 mL/kg.
Testing procedure. The behavioral testing apparatus was a rectangular black Plexiglas, 2-chambered box, with no top or bottom (50 cm long, 26 cm wide and 15 cm tall) and allowed for the simultaneous testing of 2 mice. The box was placed on a laboratory bench. The chambers of the testing box were cleaned and fresh paper chip bedding was added between tests. Mice were brought to the experiment room in their home cages on the day of testing. Behavioral tests were conducted between 10:00 AM and 1:00 PM in dim light. After drug administration, a mouse was placed into a test chamber and allowed to explore for 10 minutes. After this habituation period, a novel object (e.g., a toy ball of 3 cm in diameter with spikes) was introduced to the center of the chamber for 5 minutes. For the entire 15-minute test period, video was recorded for offline analysis with Any-maze Video Tracking software (Stoelting Co., Wood Dale, Ill.). The total distance traveled during the entire 15 minutes and the number of bouts that each mouse touched the novel object during the last 5 minutes were measured.
Statistical analyses. Data are presented as means and SEMs. Data were analyzed using one-way analysis of variance (ANOVA; Prism, GraphPad Software Inc., San Diego, Calif.), followed by the post-hoc Dunnett's test to compare test compound-treated groups with the vehicle control. A p value<0.05 was considered significant.

[3] = system: wild type mice (male NMRI); assay: Marble Burying Test in wild type mice; format: in vivo, mouse; details: for change in vivo at 3 mg/kg / change in vivo at 10 mg/kg / change in vivo at 30 mg/kg: Mus musculus, ip, read-out: Percent Change in marbles buried relative to vehicle
Description: Animals. Male NMRI mice (20-30 g body weight) were obtained from Janvier Labs (Le Genest-Saint Isle, France) and allowed to acclimate to the animal facility for at least 5 days. Twelve mice were studied per treatment group.
Compound formulation. The test compounds were prepared in a vehicle of 0.5% DMSO and 4% HP-β-CD, and administered orally (PO) or IP. The test compounds or vehicle were administered 20 minutes before the behavioral test described below. Clobazam (8 mg/kg IP), administered 30 minutes before the test, was used as the positive reference compound.
Clobazam was dispersed in 0.2% hydroxypropylmethylcellulose (HPMC) in physiological saline. Dosing volume was 10 mL/kg.
Testing procedure. The Marble Burying Test was conducted as previously described by Broekkamp et al. (Eur. J. Pharmacol. 1986, 126:223-229). Mice exposed to small novel objects (marbles) will bury them in the sawdust floor covering. Anxiolytics decrease the number of marbles buried at non-sedating doses. Mice were individually placed in transparent plastic cages (33×21×18 cm) with 5 cm of sawdust on the floor and 25 marbles grouped in the center of the cage. The cage was covered with an inverted plastic cage. Each test cage, together with the marbles, was impregnated with mouse odor before-hand by leaving 10 mice in the cage for 15 minutes. These mice then played no further role in the experiment. The number of marbles covered by sawdust (⅔ or more) was counted at the end of the 30-minute test. The test was performed blind (compounds versus vehicle).
Statistical analyses. Data were analyzed by comparing test compound-treated groups with the vehicle control group using the Kruskal-Wallis test followed by post-hoc Mann-Whitney U tests. Data comparing the reference compound with the vehicle were analyzed using the Mann-Whitney U test. A p value<0.05 was considered significant.

[4] = read-out: hNR2B IC50, Table 1.3A
[5] = Table 1.1A, read-out: NR2B IC50
[6] = Table 1.3A, read-out: hNR2B IC50

`Cc1cnc(NC[C@H]2CCN(C(=O)OCc3ccc(F)cc3)CC2(F)F)cn1` [E1-21.34^B′, (R)-4-fluorobenzyl 3,3-difluoro-4-(((5-methylpyrazin-2-yl)amino)methyl)piperidine-1-carboxylate mesylate] showed a Ki [1] of 16 nM.

`Fc1cc(Cl)cnc1C(F)(F)CN1CCC(Nc2ncnc3[nH]ccc23)CC1` [C-16^A′] showed an IC50 (hERG channel) of 60000 nM, an IC50 (human NR1/NR2B) of 47 nM and an IC50 (human NR1/NR2B; [4]) of 47 nM.

`Cc1ccc(C(F)(F)CN2CCC(Nc3ncnc4[nH]ccc34)CC2)cn1` [C-128^A′] showed an IC50 (human NR1/NR2B) of 89 nM and an IC50 (human NR1/NR2B; [4]) of 89 nM.

Work on `Cc1ccc(COC(=O)N2CC[C@H](CNc3cccc(C)n3)C(F)(F)C2)cc1` [E1-23.32^B′, (+)-(R)-4-methylbenzyl 3,3-difluoro-4-(((6-methylpyridin-2-yl)amino)methyl)piperidine-1-carboxylate] yielded a Ki [1] of 31 nM.

With `FCc1ccc(C(F)(F)CN2CCC(Nc3ncnc4[nH]ccc34)CC2)nc1` [C-7^A′] the IC50 (human NR1/NR2B) was 14 nM.

`Fc1ccc(C(F)(F)CN2CCC(Nc3ncnc4[nH]ccc34)CC2)nc1` [C-2^A′] showed an IC50 (human NR1/NR2B) of 124 nM.

`Cc1ccc(COC(=O)N2CC[C@H](CNc3ncc(C(F)(F)F)cn3)C(F)(F)C2)cc1` [E1-22.29^B′, (R)-4-methylbenzyl 3,3-difluoro-4-(((5-(trifluoromethyl)pyrimidin-2-yl)amino)methyl)piperidine-1-carboxylate methanesulfonate] was tested, and the Ki [1] was over 1000 nM.

`FC(F)(F)c1ccc(C(F)(F)CN2CCC(Nc3ncnc4[nH]ccc34)CC2)cc1` [C-178^A′] was tested, and the IC50 (hERG channel) was 1600 nM, the IC50 (human NR1/NR2B; [5]) was 64 nM and the IC50 (human NR1/NR2B; [6]) was 64 nM. It also gave an IC50 (human NR1/NR2B; Table 1.4A, read-out: NR2B IC50) of 64 nM, a change in vivo at 0.3 mg/kg ([2]; Mus musculus, ip, 20 min, IP, 0.3 mg/kg, pre-test time 20 min, read-out: Percent Change in Novel Object Number of Nose Touches relative to vehicle control) of -4.12% and a change in vivo at 1 mg/kg ([2]; Mus musculus, ip, 20 min, IP, 1 mg/kg, pre-test time 20 min, read-out: Percent Change in Novel Object Number of Nose Touches relative to vehicle control) of 50.3%. For the same compound, the change in vivo at 3 mg/kg ([2]; Mus musculus, ip, 20 min, IP, 3 mg/kg, pre-test time 20 min, read-out: Percent Change in Novel Object Number of Nose Touches relative to vehicle control) was 110% and the “pattern of the dose-response function for bouts of nose touching” value [2] was “dose-dependent increases”.

`Cc1ccc(C(F)(F)CN2CCC(N(C)c3ncnc4[nH]ccc34)CC2)nc1` [C-47^A′] showed an IC50 (human NR1/NR2B; [5]) of 140 nM.

`O=C(OCc1ccc(C(F)F)cc1)N1CC[C@H](CNc2ccncn2)C(F)(F)C1` [E1-37.6^B′, (R)-4-(difluoromethyl)benzyl 3,3-difluoro-4-((pyrimidin-4-ylamino)methyl)piperidine-1-carboxylate hydrochloride] was tested, and the Ki [1] was 3.9 nM.

With `O=C(OCc1ccc(F)cc1)N1CC[C@H](CNc2ccccn2)C(F)(F)C1` [E1-23.4^B′, (R)-4-fluorobenzyl 3,3-difluoro-4-((pyridin-2-ylamino)methyl)piperidine-1-carboxylate] the Ki [1] was 7.8 nM.

For `Cc1ccc(C(F)(F)CN2CCC(Nc3ncnc4[nH]ccc34)CC2)nc1` [C-4^A′], the IC50 (human NR1/NR2B) was 35 nM and the IC50 (human NR1/NR2B; [4]) was 35 nM.

With `Fc1ccc(C(F)(F)CN2CCC(Nc3ncnc4[nH]ccc34)CC2)cc1` [C-175^A′] the IC50 (human NR1/NR2B) was 22 nM, the IC50 (human NR1/NR2B; read-out: NR2B IC50, Table 1.4A) was 22 nM and the IC50 (human NR1/NR2B; [4]) was 22 nM. The “Percent Change in Novel Object Number of Nose Touches relative to vehicle control” value ([2]; IP, 3 mg/kg) was 25.1%, the “Percent Change in Novel Object Number of Nose Touches relative to vehicle control” value ([2]; IP, 10 mg/kg) was 139% and the “Percent Change in Novel Object Number of Nose Touches relative to vehicle control” value ([2]; IP, 30 mg/kg) was −88.1%. For the same compound, the “pattern of the dose-response function for bouts of nose touching” value [2] was “inverted U-shaped dose-response function”.

Work on `O=C(OCc1ccc(C(F)F)cc1)N1CC[C@H](CNc2cccnn2)C(F)(F)C1` [E1-24.6^B′, (R)-4-(difluoromethyl)benzyl 3,3-difluoro-4-((pyridazin-3-ylamino)methyl)piperidine-1-carboxylate hydrochloride] yielded a Ki [1] of 4.7 nM.

For `O=C(OCc1ccc(F)cc1)N1CC[C@H](CNc2ccncn2)C(F)(F)C1` [E1-37.4^B′, (R)-4-fluorobenzyl 3,3-difluoro-4-((pyrimidin-4-ylamino)methyl)piperidine-1-carboxylate mesylate], the Ki [1] was 4.7 nM.

With `FC(F)Oc1ccc(C(F)(F)CN2CCC(Nc3ncnc4[nH]ccc34)CC2)nc1` [C-12^A′] the “bouts of nose touching of the novel object, efficacy” value ([2]; IP (C-11 also PO)) was “not efficacious”, the change in vivo at 3 mg/kg [3] was -14% and the change in vivo at 10 mg/kg [3] was -56%. It also gave a change in vivo at 30 mg/kg [3] of -100%.

`CN1C(=O)CC(=O)N(c2ccccc2)c2cc(Cl)ccc21` [clobazam, Clobazam, reference compound] was tested, and the “number of buried marbles, positive reference” value ([3]; 8 mg/kg IP, 30 minutes before the test, data not shown) was “significantly reduced the number of buried marbles”.

Work on `Cc1cnc(C(F)(F)CN2CCC(Nc3ncnc4[nH]ccc34)CC2)c(F)c1` [C-17^A′] yielded an IC50 (human NR1/NR2B) of 44 nM.

`Cc1cnc(C(F)(F)CN2CCC(Nc3ncnc4[nH]ccc34)CC2)cn1` [C-230^A′] gave an IC50 (human NR1/NR2B) of 88 nM and an IC50 (human NR1/NR2B; [4]) of 88 nM.

Compound `Fc1cc(C(F)(F)F)cnc1C(F)(F)CN1CCC(Nc2ncnc3[nH]ccc23)CC1` [C-18^A′] has an IC50 (human NR1/NR2B; [5]) of 84 nM.

`FC(F)c1ccc(C(F)(F)CN2CCC(Nc3ncnc4[nH]ccc34)CC2)nc1` [C-6^A′] showed an IC50 (hERG channel) of 6900 nM, an IC50 (human NR1/NR2B; [5]) of 31 nM and an IC50 (human NR1/NR2B; [6]) of 31 nM. It also gave a change in vivo at 3 mg/kg [3] of -23%, a change in vivo at 10 mg/kg [3] of -62% and a change in vivo at 30 mg/kg [3] of -100%.

For `FC(F)(CN1CCC(Nc2ncnc3[nH]ccc23)CC1)c1ccc(Cl)cc1` [C-176^A′], the IC50 (human NR1/NR2B) was 26 nM.

`Cc1ccc(C(F)(F)CN2CCC(Nc3ncnc4[nH]ccc34)CC2)cc1` [C-177^A′] gave an IC50 (human NR1/NR2B) of 27 nM.
